Here are results for one compound from patent publication US20230233617A1, “METHODS FOR DIFFERENTIATING STEM CELLS INTO DOPAMINERGIC PROGENITOR CELLS” (JZ CELL TECHNOLOGIES AB, priority 2020, published 2023).

For this assay, the system named is hPSC-derived vMB progenitors. Kind of assay: Neurogenesis and mDA neuron yield in differentiating hPSC cultures (HuCD, TuJ1, TH, GABA immunocytochemistry, electrophysiology). It counts as cell-based, human. An excerpt:
A unique feature of mDA neurons is that they originate from initially non-neuronal floor plate (FP) cells at the ventral midline of the MB, and progenitors must acquire neuronal potential prior to differentiation into neurons^30,44. Few markers distinguish between these states, but downregulation of SHH and upregulation pro-neural bHLH proteins over time correlate with this transition^44. […] In RA^2D+SAG cultures at 21 DDC, ˜30% of DAPI^+ cells accounted for HuCD^+ neurons (FIG. 4d) and many of these had initiated expression of TH (FIG. 4c). When we instead used CHIR99021+SAG to specify LMX1A^+/NKX2.1^− vMB progenitors (FIG. 3b), cells initiated neurogenesis at around 17 DDC (FIG. 4c, d) which is consistent with previous studies^9,13. At 21 DDC, HuCD^+ neurons constituted ˜10% of total cells and few neurons expressed TH (FIG. 4c, d).
TH^+ neurons acquired a progressively more advanced neuronal morphology with a progressive outgrowth of TH^+ axonal processes in RA^2D+SAG cultures between 30-45 DDC (FIG. 4e, g, h; FIG. 8f (Supplementary FIG. 2f)). TH^+ neurons expressed mDA neuron markers LMX1A, LMX1B, FOXA2, NURR1, and OTX2 at 30-35 DDC (FIG. 4e). […] TH^+ neurons also expressed the mature neuronal marker SYNAPTOPHYSIN and the monoaminergic marker VMAT2 (FIG. 40. A subset of cells expressed GIRK2 or CALBINDIN indicating the presence of both A9- and A10-like subtypes of mDA neurons^45 (FIG. 4f). At 35 DDC, ˜80% of neurons expressed TH^+ which corresponded to ˜65% of total DAPI^+ cells (FIG. 4i, j). ˜10% of neurons expressed GABA (FIG. 4i, j), and some of these co-expressed TH (FIG. 10c (Supplementary FIG. 4c)). Only rare neurons expressing 5-HT or the MN marker PERIPHERIN were detected (FIG. 4i, j). High performance liquid chromatography (HPLC) analyses at 42 DDC established that neurons produced and released dopamine (FIG. 4k, I) but not serotonin (5-HT) or noradrenaline (NA) (FIG. 4k). […] Very few cells expressed Ki67 or phospho-histone H3 at 35-40 DDC indicating low mitotic activity after long-term culturing of cells (FIG. 4i). Functional maturation of mDA neurons in vitro can be monitored by determining the time when hPSC-derived mDA neurons acquire spontaneous action potentials, evoked action potentials and voltage-dependent Na^+ and K^+ currents, and these traits were previously reported to be attained after ˜60 days of culture of FACS-enriched mDA neurons (25+36 days: before/after sorting) using current state-of-the-art protocols^7. […] Neurons showing both spontaneous (FIG. 4m) and evoked action potentials (FIG. 4n) could be recorded at 40 DDC.
80-90% confluent PSCs cultures were rinsed twice with PBS, treated with EDTA (0.5 mM in PBS) for 5-7 min, and resuspended into single cell suspension in PBS. Cells were spin down at 400 g and resuspended in N2B27 medium (DMEM/F12: Neurobasal (1:1), 0.5×N2 and 0.5×B27 (plus vitamin A) supplements, 1×nonessential amino acids, 1% GlutaMAX, 55 μM β-mercaptoethanol-all from Thermo Fisher Scientific) containing 5 μM SB431542 (Miltenyi Biotech) and 2.5 μM DMH1 (Santa Cruz Biotech) (dual SMAD inhibition), and 10 μM ROCK inhibitor (for the first 48 hours after seeding). Cells were seeded on VTN (2 μg/cm^2) and Fibronectin (FN) (2 μg/cm^2) (Sigma) coated surface at a density of 60,000-80,000 cells/cm^2 for RA- and RA-analogues based experiments, and 20,000 cells/cm^2 for CHIR99021 experiments. SAG1.3 (Santa Cruz Biotechnology), CHIR99021 (Miltenyi Biotech), all-trans RA, 9-cis RA, 13-cis RA, Tazarotenic acid, R115866 (all Sigma), EC23 (Amsbio) were used at concentrations and time points described in the result section. For mDA neuron differentiation (see schematic drawing FIG. 4) neural progenitors were mechanically dissociated at 9 DDC with Stem Cell Passaging Tool (Thermo Fisher Scientific) and seeded at 1:3 ratio in N2B27 medium containing 10 μM ROCK inhibitor (for first 48 hours after dissociation) on VTN and FN coated surfaces. […]

For `CC1=C(/C=C/C(C)=C/C=C/C(C)=C/C(=O)O)C(C)(C)CCC1` [RA, all-trans retinoic acid], under “14 DDC, immunocytochemistry”, the “share of cell population that are ventral midbrain dopaminergic progenitor cells (FOXA2, LMX1A, LMX1B, OTX2)” value was “about 80%”. The “HuCD+ neurons as share of total DAPI+ cells” value (21 DDC, with SAG) is listed as ~30%. In addition, where the note is “RA^2D+SAG, 35 DDC”, the “TH+ cells of total DAPI+ cells” value was ~65% and the “neurons expressing GABA” value is ~10%. For the same compound, the “neurons expressing TH” value (RA^2D+SAG, 35 DDC, of neurons) is ~80%. For the same compound, the “culture time to mDA neurons exhibiting mature functional features” value (RA^2D+SAG, spontaneous and evoked action potentials) turned out to be 40 days. Besides, for the setting “with SAG”, the “time of initiation of neurogenesis (first neurons)” value is recorded as 12 DDC.
